For one test, the target named is Cannabinoid receptor 1 (Homo sapiens, UniProt P21554). Briefly: (§1) cAMP Assay: CHO cells expressing human CB1 or CB2 receptors are seeded 17-24 hours prior to the experiment 50.000 cells per well in a black 96 well plate with flat clear bottom (Corning Costar #3904) in DMEM (Invitrogen No. 31331), 1×HT supplement, with 10% fetal calf serum and incubated at 5% CO2 and 37° C. in a humidified incubator. The growth medium was exchanged with Krebs Ringer Bicarbonate buffer with 1 mM IBMX and incubated at 30° C. for 30 min. Compounds were added to a final assay volume of 100 μl and incubated for 30 min at 30° C. Using the cAMP-Nano-TRF detection kit the assay (Roche Diagnostics) was stopped by the addition of 50 μl lysis reagent (Tris, NaCl, 1.5% Triton X100, 2.5% NP40, 10% NaN3) and 50 μl detection solutions (20 μM mAb Alexa700-cAMP 1:1, and 48 μM Ruthenium-2-AHA-cAMP) and shaken for 2 h at room temperature. The time-resolved energy transfer is measured by a TRF reader (Evotec Technologies GmbH), equipped with a ND:YAG laser as excitation source. The plate is measured twice with the excitation at 355 nm and at the emission with a delay of 100 ns and a gate of 100 ns, total exposure time 10 s at 730 (bandwidth 30 nm) or 645 nm (bandwidth 75 nm), respectively.

A further test deals with Cannabinoid receptor 2 (Homo sapiens, UniProt P34972). Described as §1.

The values below come from ChEMBL document CHEMBL5726188, “Triazolo[4,5-D]pyrimidines” (2019).

Some results are limits rather than exact numbers.

A word on the EC50: it is the concentration giving half of the maximal effect. Read a low EC50 as higher potency in that assay.

Sequence of Cannabinoid receptor 2 (P34972 whole entry): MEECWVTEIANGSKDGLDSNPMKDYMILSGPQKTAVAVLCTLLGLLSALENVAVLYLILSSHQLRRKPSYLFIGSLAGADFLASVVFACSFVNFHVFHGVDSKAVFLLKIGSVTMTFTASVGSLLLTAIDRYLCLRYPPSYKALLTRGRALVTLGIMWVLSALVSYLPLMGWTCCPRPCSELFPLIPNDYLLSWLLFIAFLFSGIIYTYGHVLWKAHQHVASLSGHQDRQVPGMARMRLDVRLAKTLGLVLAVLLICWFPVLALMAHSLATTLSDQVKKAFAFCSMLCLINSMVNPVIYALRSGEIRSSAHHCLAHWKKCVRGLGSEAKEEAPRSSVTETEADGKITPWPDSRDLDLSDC
Sequence of Cannabinoid receptor 1 (P21554 whole entry): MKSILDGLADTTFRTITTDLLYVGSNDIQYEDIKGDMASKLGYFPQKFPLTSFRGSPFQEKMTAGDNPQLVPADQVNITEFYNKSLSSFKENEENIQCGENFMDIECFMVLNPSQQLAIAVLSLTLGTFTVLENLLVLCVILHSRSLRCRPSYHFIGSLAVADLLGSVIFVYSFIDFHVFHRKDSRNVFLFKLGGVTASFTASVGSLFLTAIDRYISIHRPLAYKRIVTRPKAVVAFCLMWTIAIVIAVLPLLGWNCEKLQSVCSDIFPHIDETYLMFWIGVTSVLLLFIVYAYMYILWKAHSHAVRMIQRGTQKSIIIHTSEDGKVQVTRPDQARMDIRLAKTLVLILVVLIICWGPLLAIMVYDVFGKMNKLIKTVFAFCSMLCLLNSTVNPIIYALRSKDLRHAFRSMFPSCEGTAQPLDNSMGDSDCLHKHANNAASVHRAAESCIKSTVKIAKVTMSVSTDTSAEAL

`Cc1nonc1Cn1nnc2c(-c3ccc(F)nc3)nc(C(C)(C)C)nc21`: the values for the EC50 on Cannabinoid receptor 1 and on Cannabinoid receptor 2 were above 10 µM and 639 nM, respectively.

Turning to `Cn1nccc1-c1nc(C(C)(C)C)nc2c1nnn2CCC(F)(F)F`, the EC50 at Cannabinoid receptor 1 was above 10 µM; on Cannabinoid receptor 2, 131 nM.
